Measured values as given in ChEMBL document CHEMBL1140508, “Novel C2-purine position analogs of nitrobenzylmercaptopurine riboside as human equilibrative nucleoside transporter 1 inhibitors” (Bioorg Med Chem, 2007).

molecular target: T1, Equilibrative nucleoside transporter 1 (Homo sapiens, UniProt Q99808); test: Displacement of SAENTA-fluorescein from human ENT1 in K562 cells after 45 mins by flow cytometry; format: cell-based
T1 sequence (Q99808 whole entry): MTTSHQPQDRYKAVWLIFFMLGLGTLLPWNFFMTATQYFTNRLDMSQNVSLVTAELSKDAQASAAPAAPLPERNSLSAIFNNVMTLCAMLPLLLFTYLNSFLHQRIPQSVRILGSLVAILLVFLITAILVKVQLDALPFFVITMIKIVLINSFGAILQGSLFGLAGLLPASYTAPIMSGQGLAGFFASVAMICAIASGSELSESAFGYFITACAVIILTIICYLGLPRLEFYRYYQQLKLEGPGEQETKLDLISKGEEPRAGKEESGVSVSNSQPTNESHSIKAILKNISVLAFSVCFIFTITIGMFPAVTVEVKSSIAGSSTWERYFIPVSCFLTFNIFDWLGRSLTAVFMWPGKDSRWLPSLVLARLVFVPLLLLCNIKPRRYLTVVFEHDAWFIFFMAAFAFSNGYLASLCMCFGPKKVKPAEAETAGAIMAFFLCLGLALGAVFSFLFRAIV

Row | Ki [nM] | Compound
1 | 2.1 | O=[N+]([O-])c1ccc(CSc2nc(F)nc3c2ncn3[C@@H]2O[C@H](CO)[C@@H](O)[C@H]2O)cc1
2 | 193 | CCCNc1nc(SCc2ccc([N+](=O)[O-])cc2)c2ncn([C@@H]3O[C@H](CO)[C@@H](O)[C@H]3O)c2n1
3 | 429 | CN(C)c1nc(SCc2ccc([N+](=O)[O-])cc2)c2ncn([C@@H]3O[C@H](CO)[C@@H](O)[C@H]3O)c2n1
4 | 33 | O=[N+]([O-])c1ccc(CSc2nc(NC3CCC3)nc3c2ncn3[C@@H]2O[C@H](CO)[C@@H](O)[C@H]2O)cc1
5 | 357 | CCCCCNc1nc(SCc2ccc([N+](=O)[O-])cc2)c2ncn([C@@H]3O[C@H](CO)[C@@H](O)[C@H]3O)c2n1
6 | 400 | O=[N+]([O-])c1ccc(CSc2nc(NC3CCCCC3)nc3c2ncn3[C@@H]2O[C@H](CO)[C@@H](O)[C@H]2O)cc1
7 | 11 | O=[N+]([O-])c1ccc(CSc2nc(Cl)nc3c2ncn3[C@@H]2O[C@H](CO)[C@@H](O)[C@H]2O)cc1
8 | 86 | O=[N+]([O-])c1ccc(CSc2nc(NCCO)nc3c2ncn3[C@@H]2O[C@H](CO)[C@@H](O)[C@H]2O)cc1
9 | 243 | O=[N+]([O-])c1ccc(CSc2nc(N(CCO)CCO)nc3c2ncn3[C@@H]2O[C@H](CO)[C@@H](O)[C@H]2O)cc1
10 | 11 | O=[N+]([O-])c1ccc(CSc2nc(Br)nc3c2ncn3[C@@H]2O[C@H](CO)[C@@H](O)[C@H]2O)cc1
11 | 34 | CC(=O)Nc1nc(SCc2ccc([N+](=O)[O-])cc2)c2ncn([C@@H]3O[C@H](CO)[C@@H](O)[C@H]3O)c2n1
12 | 315 | O=C(Nc1nc(SCc2ccc([N+](=O)[O-])cc2)c2ncn([C@@H]3O[C@H](CO)[C@@H](O)[C@H]3O)c2n1)c1ccccc1
13 | 247 | O=[N+]([O-])c1ccc(CSc2nc(NCc3ccccc3)nc3c2ncn3[C@@H]2O[C@H](CO)[C@@H](O)[C@H]2O)cc1
14 | 24 | CNc1nc(SCc2ccc([N+](=O)[O-])cc2)c2ncn([C@@H]3O[C@H](CO)[C@@H](O)[C@H]3O)c2n1
15 | 25 | O=[N+]([O-])c1ccc(CSc2nc(NC3CC3)nc3c2ncn3[C@@H]2O[C@H](CO)[C@@H](O)[C@H]2O)cc1
16 | 325 | CCCCNc1nc(SCc2ccc([N+](=O)[O-])cc2)c2ncn([C@@H]3O[C@H](CO)[C@@H](O)[C@H]3O)c2n1
17 | 125 | O=[N+]([O-])c1ccc(CSc2nc(NC3CCCC3)nc3c2ncn3[C@@H]2O[C@H](CO)[C@@H](O)[C@H]2O)cc1
18 | 11 | O=[N+]([O-])c1ccc(CSc2nc(I)nc3c2ncn3[C@@H]2O[C@H](CO)[C@@H](O)[C@H]2O)cc1
19 | 24 | CCNc1nc(SCc2ccc([N+](=O)[O-])cc2)c2ncn([C@@H]3O[C@H](CO)[C@@H](O)[C@H]3O)c2n1
20 | 1.1 | Nc1nc(SCc2ccc([N+](=O)[O-])cc2)c2ncn([C@@H]3O[C@H](CO)[C@@H](O)[C@H]3O)c2n1
21 | 394 | O=[N+]([O-])c1ccc(CSc2nc(NCCc3ccccc3)nc3c2ncn3[C@@H]2O[C@H](CO)[C@@H](O)[C@H]2O)cc1
